{
  "source": "patent US20080194698A1",
  "about": "“Nmda Receptor Antagonists in the Medical Intervention of Metabolic Disorders” (priority 2005, published 2008)",
  "key": {"[1]": {"test": "Oral (maternal and offspring feeding) or neonatal s.c. administration of monosodium glutamate to Wistar rats", "format": "in vivo", "description": "The effects of oral administration of GLU were investigated in 32 pregnant rats and their offspring up to day 90 of life, in the animal facilities of the Department of Physiology, Medical School, Universidad Complutense, Madrid, Spain. The study was conducted in accordance with the principles and procedures outlined in the NIH Guide for the Care and Use of Laboratory Animals. Pregnant Wistar rats were kept under controlled conditions of light (12 h light/12 h darkness) and temperature (21+/−2C.°), and were fed with tap water and rat chow (Panlab, Barcelona, Spain) ad libitum.\nAt day 14 of pregnancy, the animals were divided into four groups (n=8), and either received no extra monosodium glutamate (MSG) (control, group 1), or 2.5 g MSG (group 2) or 5 g MSG per day (group 3), up to the end of the weaning period. 2.5 g, respectively 5 g MSG accounted for some 10%, respectively 20% of dry weight of the average daily food ration. After weaning and gender separation, MSG feeding was continued in the offspring at the same concentrations. A fourth group of animals received no MSG, but their offspring was injected with MSG 4 mg/g body weight s.c., at neonatal age as described earlier (Hermanussen, (1996) loc. cit.). Due to the existence of two gender groups a total of 8 experimental groups were obtained with n=6-9 for each group of females and males. All litter was weighed at weekly intervals, and the amount of food consumed was registered daily. Offspring was sacrificed half at day 30 and the rest at day 90 of life.\nHalf of the animals were killed by decapitation at day 30 and the other half at the end of the observation period at day 90. Anterior pituitaries were removed, and trunk blood was collected. Serum samples and anterior pituitaries after being weighted, were kept at −80° C., for hormonal determinations by specific radioimmunoassays (RIA). Pituitary homogenates were obtained by manual glass homogenizers, and processed in saline after thawing in the moment of the measurement.\nPlasma GH levels and pituitary GH content were determined by RIA as previously described.^21 Pituitary homogenates were diluted 1:5000 for determination. Reagents were kindly provided by the National Institute of Diabetes, Digestive and Kidney Diseases (NIDDK). The standard used was rat GH RP2. The sensitivity of the curve was 2 ng/ml and the intraassay coefficient of variation was 5.7%. Plasma IGF I concentrations were measured using a commercially available rat RIA kit (DSL-2900, Diagnostic Systems Laboratories, INC). The sensitivity of the assay was 20 ng/ml, and the intraassay coefficients of variation for mean serum concentrations of 323, 772 and 1604 ng/ml were 5.9%, 6.1% and 3.8%, respectively.\nValues are expressed as mean +/−SEM. […] To determine differences in final weight or hormonal levels a two-way ANOVA test was performed. Differences among groups were subjected to a post-hoc comparison by using Tukey HSD for unequal N test. Statistics were executed using Statistica program. The significance level was determined to be p<0.05."}, "[2]": {"test": "Preliminary clinical trial of memantine in obese, otherwise healthy patients", "format": "in vivo, human", "description": "The patients experienced an initial loss of body weight of 1 to 3 kg within a 7 day period. Further weight loss is observed during the course of administration over a longer period of time, see appended FIG. 6.\nFIG. 6. Percent body weight decline in seven obese and one overweight subjects (6 females, 2 males) during a two month therapeutical trial with memantine (Axura®, Merz Pharmaceuticals GmbH), 5-10 mg in the morning, and 5-20 mg late in the afternoon (Patient […] initial body weight 126.6 kg, […] initial body weight 90.6 kg, Re initial body weight 93.5 kg, Br initial body weight 122.3 kg, Ku initial body weight 111.0 kg, Ho initial body weight 77.6 kg, Sk (male) initial body weight 148.6 kg, Le (male) initial body weight 109.6 kg).\nThe following preliminary and limited clinical trials have been carried out in the private practice of the inventor. The trials with memantine are carried out since Feb. 2, 2005, in eight obese, but otherwise healthy patients, 6 females, and 2 males (Table 1; FIG. 6)."}, "[3]": {"settings": "cited from earlier work"}, "[4]": {"settings": "doses 100 to 1400 mg; seven of 13 female patients; cited from earlier work"}, "[5]": {"settings": "5 g MSG per day, day 90 of life, p<0.01"}},
  "note": "Like-named read-outs stand apart in the source and are kept apart here.",
  "data": [
    {"smiles": "N[C@@H](CCC(=O)O)C(=O)[O-].[Na+]", "note": "[MSG, monosodium glutamate]", "values": [
      {"measurement": "food uptake", "setting": "[1]; [5]", "value": "almost twofold"},
      {"measurement": "water uptake", "setting": "[1]; [5]", "value": "threefold"},
      {"measurement": "weight increments during weaning", "setting": "[1]; MSG feeding to the mothers maintained during weaning, p<0.01", "value": "subnormal"},
      {"measurement": "appetite", "setting": "[1]; MSG injected animals, compared to controls", "value": "did not show significantly increased appetite"},
      {"measurement": "IGF-1 serum levels", "setting": "[1]; compared with the GH results, day 30 and day 90 of life", "value": "Almost identical results"},
      {"measurement": "serum GH levels", "setting": "[1]; high MSG diet (5 g MSG per day), day 30 and day 90 of life, p<0.05", "value": "as low or even lower than those of MSG injected animals"},
      {"measurement": "birth weight of the offspring", "setting": "[1]; maternal feeding with 2.5 g MSG per day, compared to controls", "value": "no birth weight modification"},
      {"measurement": "birth weight of the offspring", "setting": "[1]; maternal feeding with 5 g MSG per day, p<0.01", "value": "severe birth weight reduction"},
      {"measurement": "appetite", "setting": "[1]; medium MSG diet (2.5 g MSG per day) and particularly high MSG diet (5 g MSG per day)", "value": "marked voracity"},
      {"measurement": "serum GH levels", "setting": "[1]; medium MSG diet (2.5 g MSG per day), day 30 of life, p<0.01", "value": "low"},
      {"measurement": "GH plasma levels of the offspring", "setting": "[1]; neonatally injected with MSG 4 mg/g body weight s.c., day 30 and day 90 of life, p<0.05", "value": "low"}
    ]},
    {"smiles": "CC12CC3CC(C)(C1)CC(N)(C3)C2", "note": "[memantine]", "values": [
      {"measurement": "late afternoon or evening binge-eating disorders (patient report)", "setting": "[2]; already at the second day of treatment", "value": "complete disappeared"},
      {"measurement": "side effects", "setting": "[2]; initial treatment period", "value": "Apart from short moments of mild dizziness at the first day, and mild constipation, there were no side effects"},
      {"measurement": "appetite (patient report)", "setting": "[2]; obese patients on memantine", "value": "significant decrease in appetite"},
      {"measurement": "Weight (kg) after treatment", "setting": "[2]; patient eight, 93.5 kg, BMI 32.6 before treatment, 56 days of treatment", "value": 91.3, "unit": "kg"},
      {"measurement": "Weight (kg) after treatment", "setting": "[2]; patient five, 90.6 kg, BMI 33.3 before treatment, 49 days of treatment", "value": 86.6, "unit": "kg"},
      {"measurement": "Weight (kg) after treatment", "setting": "[2]; patient four, 109.6 kg, BMI 31.7 before treatment, 54 days of treatment", "value": 99.4, "unit": "kg"},
      {"measurement": "Weight (kg) after treatment", "setting": "[2]; patient one, 111.0 kg, BMI 38.6 before treatment, 56 days of treatment", "value": 104.4, "unit": "kg"},
      {"measurement": "Weight (kg) after treatment", "setting": "[2]; patient seven, 77.6 kg, BMI 27.5 before treatment, 77 days of treatment", "value": 71.4, "unit": "kg"},
      {"measurement": "Weight (kg) after treatment", "setting": "[2]; patient six, 126.6 kg, BMI 43.3 before treatment, 67 days of treatment", "value": 111.3, "unit": "kg"},
      {"measurement": "Weight (kg) after treatment", "setting": "[2]; patient three, 122.3 kg, BMI 42.8 before treatment, 40 days of treatment", "value": 117.5, "unit": "kg"},
      {"measurement": "Weight (kg) after treatment", "setting": "[2]; patient two, 148.6 kg, BMI 38.3 before treatment, 25 days of treatment", "value": 144.8, "unit": "kg"}
    ]},
    {"smiles": "CC1(C)O[C@@H]2[C@@H](CO[C@@]3(COS(N)(=O)=O)OC(C)(C)O[C@@H]23)O1", "note": "[topiramate]", "values": [
      {"measurement": "weight loss", "setting": "[3]; 64 mg/d, 6 months", "value": 5.0, "unit": "%"},
      {"measurement": "weight loss", "setting": "[3]; 96 mg, 6 months", "value": 4.8, "unit": "%"},
      {"measurement": "weight loss", "setting": "[3]; 192 mg, 6 months", "value": 6.3, "unit": "%"},
      {"measurement": "weight loss", "setting": "[3]; 384 mg, intention-to-treat population, 6 months, placebo 2.6%", "value": 6.3, "unit": "%"},
      {"measurement": "weight loss", "setting": "[3]; 384-mg dose, completers", "value": "up to 8.5%"},
      {"measurement": "weight loss", "setting": "[4]", "value": "> 5", "unit": "kg"}
    ]}
  ]
}
